# Reference: patent US10646488B2 (Araxes Pharma LLC, priority 2016, dated 2020)
# Target: T1, KRAS G12C 1-169, his-tagged protein, GDP-loaded (Homo sapiens, UniProt P01116, G12C)
# T1 construct: KRAS G12C 1-169, his-tagged protein, GDP-loaded
# Assay: Covalent binding (% modification) to KRAS G12C by mass spectrometry; also: test concentration or dose not given here
# Details: covalent binding to KRAS G12C after a three minute incubation period
row,SMILES,Binding %
1,"C=CC(=O)N1C[C@H](C)N(c2nc(Oc3ccnn3C)nc3c(F)c(-c4c(O)cccc4F)c(Cl)cc23)C[C@H]1C [Compound 208, 1-((2R,5S)-4-(6-chloro-8-fluoro-7-(2-fluoro-6-hydroxyphenyl)-2-((1-methyl-1H-pyrazol-5-yl)oxy)quinazolin-4-yl)-2,5-dimethyl-piperazin-1-yl) prop-2-en-1-one]",+++ (+++ indicates binding activity greater than 90%)
2,"C=CC(=O)N1C[C@H](C)N(c2nc(N3CC(N(CC)C4CC4)C3)nc3c(F)c(-c4c(O)cccc4F)c(Cl)cc23)C[C@H]1C [Compound 105, 1-((2R,5S)-4-(6-chloro-2-(3-(cyclopropyl (ethyl)amino)azetidin-1-yl)-8-fluoro-7-(2-fluoro-6-hydroxyphenyl)quinazolin-4-yl)-2,5-dimethyl-piperazin-1-yl) prop-2-en-1-one]",++ (++ indicates binding activity from 50 to 90%)
3,"C=CC(=O)N1C[C@H](C)N(c2nc(OCCN3CCC(F)(F)C3)nc3c(F)c(-c4c(O)cccc4F)c(Cl)cc23)C[C@H]1C [Compound 203, 1-((2R,5S)-4-(6-chloro-2-(2-(3,3-difluoropyrrolidin-1-yl)ethoxy)-8-fluoro-7-(2-fluoro-6-hydroxyphenyl)quinazolin-4-yl)-2,5-dimethyl-piperazin-1-yl) prop-2-en-1-one]",+++ (+++ indicates binding activity greater than 90%)
4,"C=CC(=O)N1C[C@H](C)N(c2nc(N3CC(C)(N(C)C)C3)nc3c(F)c(-c4c(C)ccc5cn[nH]c45)c(Cl)cc23)C[C@H]1C [Compound 124, 1-((2R,5S)-4-(6-chloro-2-(3-(dimethylamino)-3-methylazetidin-1-yl)-8-fluoro-7-(6-methyl-1H-indazol-7-yl)quinazolin-4-yl)-2,5-dimethyl-piperazin-1-yl) prop-2-en-1-one]",++ (++ indicates binding activity from 50 to 90%)
